Test results published in publication PMC10730845, “Endoxifen downregulates AKT phosphorylation through protein kinase C beta 1 inhibition in ERα+ breast cancer” (NPJ Breast Cancer, 2023).

How the values were obtained:
[1] = target: PKC iota (PKCi) (Homo sapiens, UniProt P41743); test: In vitro kinase assay, PKC iota; format: biochemical; details: 10 μM ATP
Excerpt: Supplementary Table 4. In vitro kinase assay showing the IC 50 concentration of ENDX and
of the 12 PKC family members.
(1 picture or pasted object on this page, not shown here)

[2] = design: method as in PMID 24853369, PMID 28977607; details: low (10 mg/kg) and high (50 mg/kg) doses; cited from earlier work
[3] = tested on: T47D-LTED cells; test: IncuCyte Annexin V apoptosis assay, T47D-LTED; format: cell-based, human; details: CSS medium, 48 h; 5 µM
Protocol: MCF7AC1 and T47D-LTED cells were plated at a density of 2000 cells per well in CSS medium for 24 h. Cells were then co-treated for 48 h with vehicle or drug, IncuCyte Annexin V green reagent (#4642, 1:300), an early-stage apoptosis marker, and IncuCyte NucLight rapid red reagent (#4717, 1:500), a dye that stains all cell nuclei red, in CSS medium. MCF7AC1^caAKT cells were plated at a cell density of 2000 cells per well in CSS medium in the absence or presence of cumate for 48 h and then co-treated with vehicle or drug, Annexin V green and NucLight rapid red reagents in the absence or presence of cumate for an additional 48 h in CSS medium.
Supplementary Figure 6. […] Cell viability is assessed by the crystal violet assay. b, MCF7AC1 cells were co-treated with vehicle control or 0.01, 0.1 and 5 µM MK-2206 and IncuCyte Annexin V green and NucLight rapid red reagents in CSS medi um for 48 hours. […]
Cells were plated at a density of 2000 cells per well. c, MCF7AC1 cells were treated with vehicle control or 0.01, 0.1 and 5 µM MK-2206 in CSS medium for 24 hours. […] Cell viability is assessed by the crystal violet assay. f, Parental T47D and T47D-LTED cells were processed for protein lysates. […] Percentage of cells undergoing apoptosis was calculated as mentioned in b. i, T47D-LTED cells were treated with vehicle control or 0.01, 0.1 and 5 µM MK -2206 in CSS medium for 24 hours . […]

Chain of PKC iota (PKCi) (P41743 whole entry): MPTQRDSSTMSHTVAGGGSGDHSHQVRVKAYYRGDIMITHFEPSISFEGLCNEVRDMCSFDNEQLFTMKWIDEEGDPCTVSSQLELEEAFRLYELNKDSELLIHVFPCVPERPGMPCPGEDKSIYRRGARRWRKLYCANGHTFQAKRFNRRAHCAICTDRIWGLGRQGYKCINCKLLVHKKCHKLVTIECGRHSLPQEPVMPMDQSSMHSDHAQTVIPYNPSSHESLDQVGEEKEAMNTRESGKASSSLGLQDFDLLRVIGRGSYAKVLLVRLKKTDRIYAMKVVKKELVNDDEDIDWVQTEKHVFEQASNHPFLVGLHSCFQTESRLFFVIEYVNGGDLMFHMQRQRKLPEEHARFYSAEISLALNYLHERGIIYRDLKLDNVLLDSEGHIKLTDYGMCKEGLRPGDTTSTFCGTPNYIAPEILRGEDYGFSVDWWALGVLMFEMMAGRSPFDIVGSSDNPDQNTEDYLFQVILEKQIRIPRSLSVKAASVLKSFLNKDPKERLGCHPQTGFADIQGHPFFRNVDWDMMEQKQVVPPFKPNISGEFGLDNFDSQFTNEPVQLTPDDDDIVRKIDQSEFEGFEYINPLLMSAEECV

In the case of CC/C(=C(\c1ccc(O)cc1)c1ccc(OCCNC)cc1)c1ccccc1 [ENDX, Z-endoxifen], the IC50 [1] is listed as greater than 50 µM, the “Effects on the bone” value [2] is listed as “increasing cancellous and cortical bone mass, reducing bone turnover, and protecting against bone loss” and the “Effect on apoptosis (annexin V binding, PARP1 cleavage)” value [3] is listed as “induced apoptosis”.
